From US11254686B1 (Corvus Pharmaceuticals, Inc., priority 2017, dated 2022)

Assays:
[1] = target: adenosine A2B receptor (Homo sapiens (Human), UniProt P29275); test: Adenosine receptor activity assay (Table 1), A2B activity; type: biochemical; conditions: for Ratio: A2A activity to the A2B activity, A2A/A2B; for IC50: read-out: Ave A2B cAMP IC50
[2] = target: adenosine A2A receptor (Homo sapiens (Human), UniProt P29274); test: Adenosine receptor activity assay (Table 1), A2A activity; type: biochemical; conditions: read-out: Ave A2A cAMP IC50
Sequence of adenosine A2A receptor (P29274 whole entry): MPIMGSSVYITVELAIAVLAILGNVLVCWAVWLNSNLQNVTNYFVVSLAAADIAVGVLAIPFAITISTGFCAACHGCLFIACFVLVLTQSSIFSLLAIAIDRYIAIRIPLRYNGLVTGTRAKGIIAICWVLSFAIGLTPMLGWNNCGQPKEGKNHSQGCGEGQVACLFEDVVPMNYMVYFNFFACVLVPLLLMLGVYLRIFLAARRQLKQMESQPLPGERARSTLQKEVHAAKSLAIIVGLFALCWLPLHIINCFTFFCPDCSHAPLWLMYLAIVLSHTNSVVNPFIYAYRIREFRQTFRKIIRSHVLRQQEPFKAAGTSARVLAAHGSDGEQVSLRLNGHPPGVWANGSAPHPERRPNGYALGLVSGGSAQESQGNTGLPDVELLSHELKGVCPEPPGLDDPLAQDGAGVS

Sequence of adenosine A2B receptor (P29275 whole entry): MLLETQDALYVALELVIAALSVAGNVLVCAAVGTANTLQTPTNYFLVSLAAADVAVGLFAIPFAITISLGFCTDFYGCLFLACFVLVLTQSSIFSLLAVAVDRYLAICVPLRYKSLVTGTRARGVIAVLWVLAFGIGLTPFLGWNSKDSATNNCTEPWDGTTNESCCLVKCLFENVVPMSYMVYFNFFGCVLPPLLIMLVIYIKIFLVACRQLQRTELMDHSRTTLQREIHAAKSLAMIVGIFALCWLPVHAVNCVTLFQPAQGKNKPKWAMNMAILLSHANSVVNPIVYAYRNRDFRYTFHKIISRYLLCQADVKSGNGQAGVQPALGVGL

C[C@H](Nc1nc(C(=O)NCCc2cccc(C#N)c2)c2sccc2n1)c1cncc(F)c1 [Example Z445, (S)—N-(3-Cyanophenethyl)-2-((1-(5-fluoropyridin-3-yl)ethyl)amino)thieno[3,2-d]pyrimidine-4-carboxamide]
Ratio [1]: 9.62 | IC50 [1]: 50 to 100 nM | IC50 [2]: > 500 nM

C[C@H](Nc1nc(C(=O)NCC2CCN(CCc3ccccc3)CC2)c2sccc2n1)c1ccccn1 [Example Z446, (S)—N-((1-Phenethylpiperidin-4-yl)methyl)-2-((1-(pyridin-2-yl)ethyl)amino)thieno[3,2-d]pyrimidine-4-carboxamide]
Ratio [1]: 0.56 | IC50 [1]: > 500 nM | IC50 [2]: > 500 nM

Cc1csc2c(C(=O)NCCc3cccc(O)c3)nc(N[C@@H](C)c3ccccn3)nc12 [Example Z447, (S)—N-(3-Hydroxyphenethyl)-7-methyl-2-((1-(pyridin-2-yl)ethyl)amino)thieno[3,2-d]pyrimidine-4-carboxamide]
Ratio [1]: 1.23 | IC50 [1]: 50 to 100 nM | IC50 [2]: 50 to 100 nM

COc1ncccc1CNC(=O)c1nc(N[C@@H](C)c2ccccn2)nc2ccsc12 [Example Z449, (S)—N-((2-Methoxypyridin-3-yl)methyl)-2-((1-(pyridin-2-yl)ethyl)amino)thieno[3,2-d]pyrimidine-4-carboxamide]
Ratio [1]: 0.91 | IC50 [1]: > 500 nM | IC50 [2]: > 500 nM

C[C@H](Nc1nc(C(=O)NCCc2ccc(C(=O)O)cc2)c2sccc2n1)c1cncc(F)c1 [Example Z452, (S)-4-(2-(2-((1-(5-Fluoropyridin-3-yl)ethyl)amino)thieno[3,2-d]pyrimidine-4-carboxamido)ethyl)benzoic acid]
Ratio [1]: 19.85 | IC50 [1]: 100 to 500 nM | IC50 [2]: > 500 nM

CCOc1ccc(CNc2nc(C(=O)N3CCC3)c3sccc3n2)cn1 [Example Z453, Azetidin-1-yl(2-(((6-ethoxypyridin-3-yl)methyl)amino)thieno[3,2-d]pyrimidin-4-yl)methanone]
Ratio [1]: 0.43 | IC50 [1]: 100 to 500 nM | IC50 [2]: 100 to 500 nM

C[C@H](Nc1nc(C(=O)NCCc2ccc(S(N)(=O)=O)cc2)c2sccc2n1)c1cncc(F)c1 [Example Z454, (S)-2-((1-(5-Fluoropyridin-3-yl)ethyl)amino)-N-(4-sulfamoylphenethyl)thieno[3,2-d]pyrimidine-4-carboxamide]
Ratio [1]: 38.75 | IC50 [1]: 10 to 50 nM | IC50 [2]: > 500 nM

C[C@H](Nc1nc(C(=O)NCCc2ccc(S(C)(=O)=O)cc2)c2sccc2n1)c1cncc(F)c1 [Example Z455, (S)-2-((1-(5-Fluoropyridin-3-yl)ethyl)amino)-N-(4-(methylsulfonyl)phenethyl)thieno[3,2-d]pyrimidine-4-carboxamide]
Ratio [1]: 3.91 | IC50 [1]: 100 to 500 nM | IC50 [2]: > 500 nM

Cc1cc2nc(N[C@@H](C)c3cccnc3)nc(C(=O)NCc3ccccn3)c2s1 [Example Z457, (S)-6-Methyl-N-(pyridin-2-ylmethyl)-2-((1-(pyridin-3-yl)ethyl)amino)thieno[3,2-d]pyrimidine-4-carboxamide]
Ratio [1]: 2.73 | IC50 [1]: 50 to 100 nM | IC50 [2]: 100 to 500 nM

CCNC(=O)c1nc(NCCc2ccc(O)cc2)nc2ccsc12 [Example Z460, N-Ethyl-2-((4-hydroxyphenethyl)amino)thieno[3,2-d]pyrimidine-4-carboxamide]
Ratio [1]: 0.84 | IC50 [1]: 100 to 500 nM | IC50 [2]: 100 to 500 nM

COc1ccc([C@H](C)Nc2nc(C(=O)NCc3ccccn3)c3sccc3n2)cc1 [Example Z466, (S)-2-((1-(4-Methoxyphenyl)ethyl)amino)-N-(pyridin-2-ylmethyl)thieno[3,2-d]pyrimidine-4-carboxamide]
Ratio [1]: 0.05 | IC50 [1]: > 500 nM | IC50 [2]: 10 to 50 nM

COC[C@H]1CCN(C(=O)c2nc(N[C@@H](C)c3ccccn3)nc3ccsc23)C1 [Example Z470, ((S)-3-(Methoxymethyl)pyrrolidin-1-yl)(2-(((S)-1-(pyridin-2-yl)ethyl)amino)thieno[3,2-d]pyrimidin-4-yl)methanone]
Ratio [1]: 1.07 | IC50 [1]: 50 to 100 nM | IC50 [2]: 100 to 500 nM

COC[C@@H]1CCN(C(=O)c2nc(N[C@@H](C)c3ccccn3)nc3ccsc23)C1 [Example Z471, ((R)-3-(Methoxymethyl)pyrrolidin-1-yl)(2-(((S)-1-(pyridin-2-yl)ethyl)amino)thieno[3,2-d]pyrimidin-4-yl)methanone]
Ratio [1]: 7.81 | IC50 [1]: 50 to 100 nM | IC50 [2]: 100 to 500 nM

C[C@H](Nc1nc(C(=O)N2CC[C@H](NC(=O)OCc3ccccc3)C2)c2sccc2n1)c1cncc(F)c1 [Example Z472, Benzyl ((S)-1-(2-(((S)-1-(5-fluoropyridin-3-yl)ethyl)amino)thieno[3,2-d]pyrimidine-4-carbonyl)pyrrolidin-3-yl)carbamate]
Ratio [1]: 8.61 | IC50 [1]: 10 to 50 nM | IC50 [2]: > 500 nM

COc1ccc(CNC(=O)c2nc(N[C@@H](C)c3ccccn3)nc3ccsc23)cc1 [Example Z474, (S)—N-(4-Methoxybenzyl)-2-((1-(pyridin-2-yl)ethyl)amino)thieno[3,2-d]pyrimidine-4-carboxamide]
Ratio [1]: 0.80 | IC50 [1]: 50 to 100 nM | IC50 [2]: 50 to 100 nM

C[C@H](Nc1nc(C(=O)NCCc2ccc(NC(=O)OC(C)(C)C)cc2)c2sccc2n1)c1cncc(F)c1 [Example Z482, tert-Butyl (S)-(4-(2-(2-((1-(5-fluoropyridin-3-yl)ethyl)amino)thieno[3,2-d]pyrimidine-4-carboxamido)ethyl)phenyl)carbamate]
Ratio [1]: 5.32 | IC50 [1]: 100 to 500 nM | IC50 [2]: > 500 nM

Cc1cc2nc(N[C@@H](C)c3cncc(F)c3)nc(C(=O)N3CC(N(C)C(=O)OC(C)(C)C)C3)c2s1 [Example Z484, tert-Butyl (S)-(1-(2-((1-(5-fluoropyridin-3-yl)ethyl)amino)-6-methylthieno[3,2-d]pyrimidine-4-carbonyl)azetidin-3-yl)(methyl)carbamate]
Ratio [1]: 4.16 | IC50 [1]: 10 to 50 nM | IC50 [2]: 100 to 500 nM

COC1(C)CN(C(=O)c2nc(N[C@@H](C)c3ccccn3)nc3ccsc23)C1 [Example Z486, (S)-(3-Methoxy-3-methylazetidin-1-yl)(2-((1-(pyridin-2-yl)ethyl)amino)thieno[3,2-d]pyrimidin-4-yl)methanone]
Ratio [1]: 10.58 | IC50 [1]: 50 to 100 nM | IC50 [2]: > 500 nM

Cc1cc2nc(N[C@@H](C)c3cncc(F)c3)nc(C(=O)NCCC3CCN(C(=O)OC(C)(C)C)CC3)c2s1 [Example Z487, tert-Butyl (S)-4-(2-(2-((1-(5-fluoropyridin-3-yl)ethyl)amino)-6-methylthieno[3,2-d]pyrimidine-4-carboxamido)ethyl)piperidine-1-carboxylate]
Ratio [1]: 6.54 | IC50 [1]: 100 to 500 nM | IC50 [2]: > 500 nM

C[C@H](Nc1nc(C(=O)NCCc2ccc(N)cc2)c2sccc2n1)c1cncc(F)c1 [Example Z493, (S)—N-(4-Aminophenethyl)-2-((1-(5-fluoropyridin-3-yl)ethyl)amino)thieno[3,2-d]pyrimidine-4-carboxamide]
Ratio [1]: 17.90 | IC50 [1]: 50 to 100 nM | IC50 [2]: > 500 nM

Cc1cc2nc(N[C@@H](C)c3cccnc3)nc(C(=O)N3CC(CNC(=O)OC(C)(C)C)C3)c2s1 [Example Z498, tert-Butyl (S)-((1-(6-methyl-2-((1-(pyridin-3-yl)ethyl)amino)thieno[3,2-d]pyrimidine-4-carbonyl)azetidin-3-yl)methyl)carbamate]
Ratio [1]: 5.78 | IC50 [1]: 100 to 500 nM | IC50 [2]: > 500 nM

Cc1cc2nc(N[C@@H](C)c3cccnc3)nc(C(=O)N3CC(CN)C3)c2s1 [Example Z499, (S)-(3-(Aminomethyl)azetidin-1-yl)(6-methyl-2-((1-(pyridin-3-yl)ethyl)amino)thieno[3,2-d]pyrimidin-4-yl)methanone]
Ratio [1]: 13.99 | IC50 [1]: > 500 nM | IC50 [2]: > 500 nM

Cc1cc2nc(N[C@@H](C)c3cccnc3)nc(C(=O)NCC[C@@H]3CCNC3)c2s1 [Example Z500, 6-Methyl-2-(((S)-1-(pyridin-3-yl)ethyl)amino)-N-(2-((S)-pyrrolidin-3-yl)ethyl)thieno[3,2-d]pyrimidine-4-carboxamide]
Ratio [1]: 12.75 | IC50 [1]: > 500 nM | IC50 [2]: > 500 nM

Cc1cc2nc(N[C@@H](C)c3cccnc3)nc(C(=O)NCC[C@H]3CCNC3)c2s1 [Example Z501, 6-Methyl-2-(((S)-1-(pyridin-3-yl)ethyl)amino)-N-(2-((R)-pyrrolidin-3-yl)ethyl)thieno[3,2-d]pyrimidine-4-carboxamide]
Ratio [1]: 8.68 | IC50 [1]: > 500 nM | IC50 [2]: > 500 nM

Cc1cc2nc(N[C@@H](C)c3cncc(F)c3)nc(C(=O)N3CC(CN(C)C)C3)c2s1 [Example Z502, (S)-(3-((Dimethylamino)methyl)azetidin-1-yl)(2-((1-(5-fluoropyridin-3-yl)ethyl)amino)-6-methylthieno[3,2-d]pyrimidin-4-yl)methanone]
Ratio [1]: 4.89 | IC50 [1]: 10 to 50 nM | IC50 [2]: 50 to 100 nM

Cc1cc2nc(N[C@@H](C)c3cccnc3)nc(C(=O)N[C@H]3C[C@@H](O)C3)c2s1 [Example Z503, N-((1s,3R)-3-hydroxycyclobutyl)-6-methyl-2-(((S)-1-(pyridin-3-yl)ethyl)amino)thieno[3,2-d]pyrimidine-4-carboxamide]
Ratio [1]: 18.01 | IC50 [1]: 10 to 50 nM | IC50 [2]: > 500 nM

Cc1cc2nc(N[C@@H](C)c3cccnc3)nc(C(=O)N3CC(CNC(=O)C(C)(C)C)C3)c2s1 [Example Z505, (S)—N-((1-(6-Methyl-2-((1-(pyridin-3-yl)ethyl)amino)thieno[3,2-d]pyrimidine-4-carbonyl)azetidin-3-yl)methyl)pivalamide]
IC50 [1]: 100 to 500 nM | IC50 [2]: 100 to 500 nM

COCC1CN(C(=O)c2nc(N[C@@H](C)c3ccccn3)nc3cc(C)sc23)C1 [Example Z514, (S)-(3-(Methoxymethyl)azetidin-1-yl)(6-methyl-2-((1-(pyridin-2-yl)ethyl)amino)thieno[3,2-d]pyrimidin-4-yl)methanone]
Ratio [1]: 5.47 | IC50 [1]: < 10 nM | IC50 [2]: 10 to 50 nM
